pIC50: −log10 of the molar value. Values after ≈ are worked out from the molar mass of the structure shown. Each block holds one compound with its values, some of them ahead of it.
How the values were obtained:
Staphylococcus aureus [1] = test: Antibacterial activity against Staphylococcus aureus ATCC 6538 inhibition of zones at 50 ug per disk by standard disk assay; type: functional; conditions: read-out: IZ
[2] = target: T1, Tyrosine-protein phosphatase non-receptor type 1 (Homo sapiens, UniProt P18031); test: Inhibition of PTP1B (unknown origin)
T1 sequence (P18031 whole entry): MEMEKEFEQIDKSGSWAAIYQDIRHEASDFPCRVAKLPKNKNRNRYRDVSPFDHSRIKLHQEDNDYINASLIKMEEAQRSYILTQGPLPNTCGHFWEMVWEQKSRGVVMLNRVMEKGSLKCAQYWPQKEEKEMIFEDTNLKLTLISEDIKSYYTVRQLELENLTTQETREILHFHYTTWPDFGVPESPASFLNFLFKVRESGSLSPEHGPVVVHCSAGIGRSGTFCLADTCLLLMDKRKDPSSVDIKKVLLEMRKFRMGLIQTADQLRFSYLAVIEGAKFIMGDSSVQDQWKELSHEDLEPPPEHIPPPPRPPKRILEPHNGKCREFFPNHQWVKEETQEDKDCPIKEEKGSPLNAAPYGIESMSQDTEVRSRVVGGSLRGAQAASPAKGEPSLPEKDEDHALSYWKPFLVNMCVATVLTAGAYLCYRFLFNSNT

[3] = target: T2, Tyrosine-protein phosphatase non-receptor type 1 (Homo sapiens) (UniProt P18031); test: Inhibition of PTP1B (unknown origin) at 15.7 uM relative control
T2 sequence (whole entry): T1 sequence (P18031 whole entry)

[4] = target: T2, Tyrosine-protein phosphatase non-receptor type 1 (Homo sapiens); test: Inhibition of human recombinant PTP1B (1 to 322 residues) expressed in Escherichia coli using pNPP as substrate at 36 uM incubated for 10 mins followed by substrate addition and measured after 30 mins by microplate reader based analysis relative to control; conditions: time 40.0 min
Vibrio anguillarum = test: Antibacterial activity against Vibrio anguillarum by microtiter plate method; type: functional
Bacillus cereus = test: Antibacterial activity against Bacillus cereus by microtiter plate method; type: functional
Vibrio parahaemolyticus = test: Antibacterial activity against Vibrio parahaemolyticus by microtiter plate method; type: functional
[5] = test system: Mycolicibacterium smegmatis; test: Antimicrobial activity against Mycobacterium smegmatis; type: functional
Staphylococcus aureus [6] = test: Antimicrobial activity against Staphylococcus aureus; type: functional
[7] = Antioxidant activity of the compound by DPPH assay; type: functional
Staphylococcus aureus [8] = test: Antibacterial activity against Staphylococcus aureus ATCC25923 measured after 18 hrs by agar dilution method; type: functional
Candida albicans = test: Antifungal activity against clinical isolate Candida albicans measured after 24 hrs by agar dilution method; type: functional
Pseudomonas aeruginosa = test: Antimicrobial activity against Pseudomonas aeruginosa; type: functional
[9] = target: T1, Tyrosine-protein phosphatase non-receptor type 1; test: Inhibition of human recombinant PTP1B (1 to 322 residues) expressed in Escherichia coli using pNPP as substrate incubated for 10 mins followed by substrate addition and measured after 30 mins by microplate reader based analysis

SMILES: O=C1c2c(O)cc(CO)cc2COc2c(O)c(O)cc(O)c21
zone of inhibition at 50 µg/disc (Staphylococcus aureus [1]): 11 mm

pIC50 [2]: 5.22
SMILES: COC(=O)[C@@]12Oc3ccc(Oc4cccc5c4C(=O)C4=C(O)C[C@H](C)[C@H](O)[C@]4(C(=O)OC)O5)c(O)c3C(=O)C1=C(O)C[C@H](C)[C@H]2O

SMILES: COC(=O)[C@@]12Oc3ccc(-c4ccc5c(c4O)C(=O)C4=C(O)C[C@H](C)[C@@H](O)[C@]4(C(=O)OC)O5)c(O)c3C(=O)C1=C(O)C[C@H](C)[C@H]2O
inhibition [3]: 40%

inhibition [4]: 32%
SMILES: COc1cc(O)cc(C)c1Oc1cc(C)cc(O)c1O

MIC (Vibrio anguillarum): 25 µM (≈ 5.93 µg/mL) | MIC (Bacillus cereus): 25 µM (≈ 5.93 µg/mL)
SMILES: O=c1[nH]c2ccccc2c(-c2ccccc2)c1O
MIC (Vibrio parahaemolyticus): 25 µM (≈ 5.93 µg/mL)

SMILES: COC(=O)[C@@]12Oc3c(-c4ccc5c(c4O)C(=O)C4=C(O)C[C@H](C)[C@H](O)[C@]4(C(=O)OC)O5)ccc(O)c3C(=O)C1=C(O)C[C@H](C)[C@H]2O
pIC50 [2]: 5.23

MIC [5]: 172 µM (≈ 59.9 µg/mL) | MIC (Staphylococcus aureus [6]): 86 µM
SMILES: O=C1C=C2OC3(O)CC(=O)c4c(O)cccc4C3=C2c2cccc(O)c21 (stereo not drawn)

SMILES: O=c1c(O)c(-c2ccc(O)c(O)c2)oc2cc(O)cc(O)c12 [QUERCETIN]
pIC50 [7]: 5.24

SMILES: COc1cc(O)c(OC)c2c1C(=O)c1c(O)cc(C)cc1CO2
zone of inhibition at 50 µg/disc (Staphylococcus aureus [1]): 11 mm

MIC (Staphylococcus aureus [8]): > 128 µg/mL | MIC (Candida albicans): > 128 µg/mL
SMILES: C=C1CCC[C@@]2(C)CC[C@H](C(C)(C)O)CC12 (stereo partly drawn)

pIC50 [7]: 5.55
SMILES: COC(=O)[C@H]1C[C@@H](C)[C@H]2[C@@H](C=C[C@H](C)[C@@H]2/C=C/C=C/C(=O)O)[C@@H]1C

MIC (Staphylococcus aureus [8]): > 128 µg/mL | MIC (Candida albicans): > 128 µg/mL
SMILES: C=C1CCC[C@@]2(C)CC(O)[C@H](C(C)(C)O)C[C@]12O (stereo partly drawn)

MIC (Staphylococcus aureus [8]): > 128 µg/mL | MIC (Candida albicans): > 128 µg/mL
SMILES: C=C1CCC[C@]2(C)C1C[C@@H](C(C)(C)O)C[C@@H]2O (stereo partly drawn)

SMILES: COc1ccc(OC)c2c1OCc1cc(CO)cc(O)c1C2=O
zone of inhibition at 50 µg/disc (Staphylococcus aureus [1]): 11 mm

SMILES: Cc1cc(O)c2c(c1)COc1c(O)ccc(O)c1C2=O
zone of inhibition at 50 µg/disc (Staphylococcus aureus [1]): 11 mm

MIC (Pseudomonas aeruginosa): 0.8 µM (≈ 0.358 µg/mL)
SMILES: CC1(C)C=Cc2c(ccc3c2N[C@]2(C[C@@]45NC(=O)[C@]6(CCCN6C4=O)CC5C2(C)C)C3=O)O1 (stereo partly drawn)

MIC (Staphylococcus aureus [8]): > 128 µg/mL | MIC (Candida albicans): > 128 µg/mL
SMILES: C=C1CCC[C@@]2(C)C[C@H](O)[C@H](C(C)(C)O)C[C@@]12O

MIC (Staphylococcus aureus [8]): > 128 µg/mL | MIC (Candida albicans): > 128 µg/mL
SMILES: C=C1C[C@@H](O)C[C@@]2(C)CC[C@H](C(C)(C)O)CC12 (stereo partly drawn)

SMILES: COC(=O)[C@@]12Oc3ccc(-c4ccc5c(c4O)C(=O)C4=C(O)C[C@H](C)[C@H](O)[C@]4(C(=O)OC)O5)c(O)c3C(=O)C1=C(O)C[C@H](C)[C@H]2O
pIC50 [2]: 5.02

MIC (Staphylococcus aureus [6]): 33 µg/mL
SMILES: COc1cc(O)c2c(c1C)[C@H](C)C(=O)OC2=O

SMILES: COc1cc(C)c(Oc2cc(C)cc(O)c2)c(O)c1 [CYPERIN]
pIC50 [9]: 4.77

SMILES: COc1ccc(OC)c2c1OCc1cc(C)cc(O)c1C2=O
zone of inhibition at 50 µg/disc (Staphylococcus aureus [1]): 11 mm

MIC (Staphylococcus aureus [8]): > 128 µg/mL | MIC (Candida albicans): > 128 µg/mL
SMILES: C=C1CCC[C@@]2(C)CC[C@H](C(C)(C)O)C[C@]12O

pIC50 [9]: 4.89
SMILES: COc1cc(C)c(Oc2cc(C)cc(O)c2O)c(O)c1

Source: ChEMBL document CHEMBL5149975, “Freshwater Fungi as a Source of Chemical Diversity: A Review” (J Nat Prod, 2021)
